What all share (details): ASO
The target of series [1] is TNF.
The target of series [2] is VCAM1.
Series [3] deals with ICAM1.

Our source for the remaining target (mRNA or protein) (fraction of control) values is the OligoGym collection.

These antisense oligonucleotides have a phosphorothioate backbone; sugars and methylation of C are not fully specified.
Note: test concentration or dose not given here.

Sequence AAACTTACCTACGACGTGGGC gave a remaining target (mRNA or protein) (fraction of control) in series [1] of no less than 1.

AAAGCTTTAAGTCCCCCGCCC had a remaining target (mRNA or protein) (fraction of control) in series [1] of 0.25.

For AACATCTCCGTACCATGCCA, the remaining target (mRNA or protein) (fraction of control) in series [2] amounted to 0.25.

In series [2], AACCCAGTGCTCCCTTTGCT yielded a remaining target (mRNA or protein) (fraction of control) of 0.21.

With AACCCTTATTTGTGTCCCACC, the remaining target (mRNA or protein) (fraction of control) in series [2] came to 0.09.

For the sequence AACCTCGCGC, the remaining target (mRNA or protein) (fraction of control) in series [3] came to 0.96.

Regarding AACTCCTCCAGTTCTCTCATC, the remaining target (mRNA or protein) (fraction of control) in series [2] came out at 0.12.

Sequence AATAATAAATAATAAATAAAT yielded a remaining target (mRNA or protein) (fraction of control) in series [1] of no less than 1.

ACACATACACACACACACACA: in series [3], the remaining target (mRNA or protein) (fraction of control) came to 0.54.

Sequence ACACTTACTGAGTGTGAGGGT had a remaining target (mRNA or protein) (fraction of control) in series [1] of no less than 1.

In turn, ACCTGTGTGTGCCTGGGAGGG displayed a remaining target (mRNA or protein) (fraction of control) in series [2] of 0.26.

As to ACGACCATCTTCCC, the remaining target (mRNA or protein) (fraction of control) in series [2] is 0.51.

Sequence ACTTTCCCAGCAGGTATTTGG gave a remaining target (mRNA or protein) (fraction of control) in series [1] of 0.88.

With AGAGCCACAATTCCCTTTCTA, in series [1], the remaining target (mRNA or protein) (fraction of control) came out at 0.2.

AGCCACCTGGGGGCCAAGGGG: in series [3], the remaining target (mRNA or protein) (fraction of control) is no less than 1.

With AGCCATAGCGAGGC, the remaining target (mRNA or protein) (fraction of control) in series [3] came to 0.64.

In series [3], AGCCATAGCGAGGCTGAGGTT returned a remaining target (mRNA or protein) (fraction of control) of 0.2.

In series [3], AGCGAGGCTG returned a remaining target (mRNA or protein) (fraction of control) of 0.97.

As for AGCGAGGCTGAG, in series [3], the remaining target (mRNA or protein) (fraction of control) came to 0.79.

Sequence AGCTGCGCTGCTACCTGCAC returned a remaining target (mRNA or protein) (fraction of control) in series [3] of 0.25.

AGGCTCCTGTTTCCGGGGAGA: in series [1], the remaining target (mRNA or protein) (fraction of control) is no less than 1.

AGGGAAGGAAGGAAGGAAGGG came in with a remaining target (mRNA or protein) (fraction of control) in series [1] of no less than 1.

In turn, AGTGAGTTCCGAAAGCCCATT showed a remaining target (mRNA or protein) (fraction of control) in series [1] of 0.94.

ATAGCGAGGC: the remaining target (mRNA or protein) (fraction of control) in series [3] is no less than 1.

Turning to ATTTGGAATTCCCAGAGTGGG, in series [1], the remaining target (mRNA or protein) (fraction of control) was no less than 1.

CAAGTGTGCATCCCCCAGGC displayed a remaining target (mRNA or protein) (fraction of control) in series [3] of 0.

CACATGTCTATGGAGGG displayed a remaining target (mRNA or protein) (fraction of control) in series [3] of 0.89.

In turn, CACGAGGCCACCACTCATCTC came in with a remaining target (mRNA or protein) (fraction of control) in series [2] of 0.05.

Sequence CAGATCAGGGAACTCCTC came in with a remaining target (mRNA or protein) (fraction of control) in series [2] of 0.55.

Consider CAGCCTGCCTTACTGTGGGC, for which the remaining target (mRNA or protein) (fraction of control) in series [2] stood at 0.67.

In series [1], CAGTCACGGCTCCCGTGGG had a remaining target (mRNA or protein) (fraction of control) of 0.91.

In turn, CATAGCGAGGCTGAGGTTGC gave a remaining target (mRNA or protein) (fraction of control) in series [3] of 0.39.

CATCTCGATTTCTGG: the remaining target (mRNA or protein) (fraction of control) in series [2] is 0.47.

On to CATCTTCCCAGGCAT, for which, in series [2], the remaining target (mRNA or protein) (fraction of control) worked out at 0.45.

In turn, CCACCACTCATCTCG gave a remaining target (mRNA or protein) (fraction of control) in series [2] of 0.26.

Take CCAGAGGAAGTGGCTGAGGG: the remaining target (mRNA or protein) (fraction of control) in series [3] stood at 0.35.

CCATAGCGAGGC displayed a remaining target (mRNA or protein) (fraction of control) in series [3] of no less than 1.

In turn, CCCAGGCATTTTAAG showed a remaining target (mRNA or protein) (fraction of control) in series [2] of 0.78.

With CCCAGGCATTTTAAGTTGCTG, in series [2], the remaining target (mRNA or protein) (fraction of control) is 0.33.

Consider CCCATTCACGAGGCCACC, for which, in series [2], the remaining target (mRNA or protein) (fraction of control) stood at 0.11.

On to CCCCCACCACTTCCCCTCTC, for which, in series [3], the remaining target (mRNA or protein) (fraction of control) came out at 0.

Sequence CCCCCACCACTTCCCCTCTCA displayed a remaining target (mRNA or protein) (fraction of control) in series [3] of 0.07.

CCCCGACTCACCTGGGAACAG came in with a remaining target (mRNA or protein) (fraction of control) in series [3] of 0.66.

Turning to CCCGGAAACCTCGCGC, the remaining target (mRNA or protein) (fraction of control) in series [3] was 0.88.

In series [2], CCCGGCATCTTTACAAAACC displayed a remaining target (mRNA or protein) (fraction of control) of 0.45.

Sequence CCCTTATTTGTGTCCC registered a remaining target (mRNA or protein) (fraction of control) in series [2] of 0.37.

In the case of CCTCCAGTTCTCTC, the remaining target (mRNA or protein) (fraction of control) in series [2] is 0.32.

In series [2], CCTGAAGCCAGTGAGG yielded a remaining target (mRNA or protein) (fraction of control) of 0.61.

CCTGAAGCCAGTGAGGCCCG: the remaining target (mRNA or protein) (fraction of control) in series [2] came to 0.42.

Sequence CCTGGGAGGGTATTC gave a remaining target (mRNA or protein) (fraction of control) in series [2] of 0.39.

Take CCTGTCCCGGGATAGGTTCA: the remaining target (mRNA or protein) (fraction of control) in series [3] was determined as 0.4.

CCTGTGTGTGCCTGGGAGGG displayed a remaining target (mRNA or protein) (fraction of control) in series [2] of 0.88.

In the case of CGACCATCTTCCCAGGCATTT, in series [2], the remaining target (mRNA or protein) (fraction of control) turned out to be 0.2.

In series [2], CGAGGCCACCACTC had a remaining target (mRNA or protein) (fraction of control) of 0.16.

On to CGATGCAGATACCGCGGAGT, for which, in series [2], the remaining target (mRNA or protein) (fraction of control) was found to be 0.37.

CGATGGGCAGTGGGAAAG: the remaining target (mRNA or protein) (fraction of control) in series [3] came to 0.95.

In series [3], CGGGGGCTGCTGGGAGC showed a remaining target (mRNA or protein) (fraction of control) of 0.76.

Regarding CGTGATGAAGAAAATAGTGGTT, in series [2], the remaining target (mRNA or protein) (fraction of control) was found to be 0.49.

With CTATGGAGGGCCACTTC, in series [3], the remaining target (mRNA or protein) (fraction of control) turned out to be 0.39.
